Source: patent US9958450B2, “L-glucose derivatives having fluorescent chromophore” (HIROSAKI UNIVERSITY, priority 2008, dated 2018)

Legend:
[1] = test system: Escherichia coli K12; assay: Incorporation of 2-NBDG or 2-NBDLG into Escherichia coli (evaluation for the state of Escherichia coli); assay type: cell-based; conditions: for difference in fluorescence detection between 2-NBDG and 2-NBDLG: dead cells prepared by treating live cells with 70% ethanol at room temperature for 10 minutes; for fluorescence due to the incorporation into the cells: live cells, 50 μM, 37° C. for 10 minutes
Method: Escherichia coli K12 was cultured with shaking overnight at 37° C. A 1 mL portion of the culture was centrifuged to collect cells, and the cells were suspended in 1 mL of phosphate buffered saline (PBS, a mixed solution of 0.01 M phosphate buffer and 0.137 M NaCl at pH 7.4). A 90 μL portion of the suspension was taken out, and 10 μL of the 2-NBDG solution or the 2-NBDLG solution was added thereto to give a final concentration of 50 μM, and then, an incorporation reaction was allowed to proceed at 37° C. for 10 minutes. After the reaction, the cells were collected by centrifugation and resuspended in PBS, and the cells were microscopically observed (objective lens ×10) and recorded using a CCD camera for microscopic observation.

[2] = test system: acutely isolated substantia nigra pars reticulata neurons; assay: Application of 2-NBDG or 2-NBDLG to acutely isolated neurons (normal fluorescence microscope); assay type: cell-based, mouse; conditions: 200 μM solution administered for 1 minute, 36 to 37° C., fluorescence images at 10 and 30 minutes after initiation of washing
Method: C57BL/6J mice at the age of 13 to 15 days after birth (juvenile period) or at the age of 33 to 45 days after birth (maturation period) were deeply anesthetized with urethane (i.p. 1.6 g/kg) and decapitated according to a common procedure. Thereafter, the brain was taken out from each mouse and cooled by immersion in a cold Ringer's solution^note 1) (at 0° C.) for 1 to 2 minutes, and then, coronal brain slices with a thickness of 400 μm were prepared using a microslicer (ZERO 1, Dosaka EM Co., Ltd.). […]
In a homemade perfusion chamber (Non-patent document 2) mounted on a heating-type xy stage (Zeiss Tempcontrol 37-2) of an inverted fluorescence microscope from Zeiss Axiovert 135 (100 W, a xenon light source), a 35-mm glass bottom culture dish^note 4) was placed, and a glass coverslip (neurons were placed thereon according to the method described in (A)) placed in the dish was perfused with a HEPES solution for recording at a rate of 1.3 mL/min. […]
In the fluorescence detection, a 450-490 nm standard bandpass excitation filter manufactured by Zeiss, Inc., a 510 nm dichroic mirror, and a 515-565 nm emission filter were used without using an ND filter, and as the objective lens, a Zeiss Plan Neofluar ×20 lens (NA 0.50) was used. […]

[3] = Fluorescence spectrum (maximum fluorescence wavelength); assay type: physicochemical
Text: When the case where a mixed liquid of 2-NBDG and 2-TRLG was used as the mixed liquid of a D-glucose derivative that has a fluorescent chromophore in the molecule and is specifically incorporated into cells and an L-glucose derivative that has, in the molecule, a fluorescent chromophore that emits fluorescence at a wavelength different from that of the fluorescence emitted by the D-glucose derivative that has a fluorescent chromophore in the molecule and is specifically incorporated into cells is cited as an example, the maximum fluorescence wavelength of the former is from 540 nm to 550 nm, and the maximum fluorescence wavelength of the latter is from 600 nm to 610 nm. Therefore, when the fluorescence at a wavelength in the vicinity of each of the maximum fluorescence wavelengths is detected for the solution obtained by mixing both glucose derivatives, the green fluorescence emitted by 2-NBDG and the red fluorescence emitted by 2-TRLG can be detected, respectively, and as a result of combining the both fluorescence spectra detected, yellow fluorescence can be detected. After administration of the mixed liquid of 2-NBDG and 2-TRLG to cells, when 2-NBDG is specifically incorporated into the cells, green fluorescence is detected from the inside of the cells. […] Therefore, by detecting the green fluorescence emitted by 2-NBDG after the mixed liquid of 2-NBDG and 2-TRLG is administered to cells, the specific incorporation of D-glucose into cells relative to L-glucose can be accurately evaluated in real time.
Incidentally, the validity of this evaluation result is supported by the result that when the mixed solution of 20 μM 2-TRLG and 100 μM 2-NBDG is used, green fluorescence emitted by 2-NBDG can be detected by detecting fluorescence at around 540 nm, and red fluorescence emitted by 2-TRLG can be detected by detecting fluorescence at around 610 nm (in the case of pH 7.4, the maximum fluorescence wavelength of 2-NBDG is 540 nm, and the maximum fluorescence wavelength of 2-TRLG is 610 nm, see FIG. 4). […]

[4] = test system: acutely isolated neurons; assay: Application of mixed solution of 2-NBDG and 2-TRLG to acutely isolated neurons (real-time laser scanning confocal fluorescence microscope); assay type: cell-based, mouse; conditions: mixed solution of 20 μM 2-TRLG and 100 μM 2-NBDG administered for 1 minute, 24° C., image at 1 minute after stopping the administration
Method: The preparation of acutely isolated neurons was performed in the same manner as in Example 1.
Then, 10 μL of this 2 mM solution was dissolved in 1 mL of a glucose-free HEPES buffer solution^note 6) containing 100 μM 2-NBDG so as to dilute the 2 mM solution to 100-fold, whereby a mixed solution of 20 μM 2-TRLG and 100 μM 2-NBDG was obtained.
3 mL of a HEPES solution^note 2) was added to a 35-mm glass bottom culture dish^note 4) having a glass bottom to which neurons were adhered, and further 3 mL of mineral oil (M8410, Sigma CO., Ltd.) was laminated thereon. […]
A total of three detectors (channels): a photomultiplier detector for light in a green wavelength range (PMT1) and a photomultiplier detector for light in a red wavelength range (PMT2), and also a detector for transmitted light (PMTTrans) were used simultaneously, and 512×512 pixel images were captured. The detection sensitivity was set as follows: PMT1: 868 V, PMT2: 868 V, and PMTtrans: 245 V. Incidentally, the optimal values of the detection wavelength ranges of green fluorescence (500-580 nm) and red fluorescence (580-740 nm) were selected not on the basis of an emission filter system, but on the basis of a system using a prism spectroscope and a slit in combination (standard of TCS SP5, Leica, Inc.). […]

[5] = 2-NBDG, 2-TRLG and 2-NMALG mixed at 1:1:25 (molar ratio), excited by laser light at 405 nm (FIG. 6)

| Structure (SMILES) | difference in fluorescence detection between 2-NBDG and 2-NBDLG [1] | fluorescence due to the incorporation into the cells [1] | green fluorescence from the cell (incorporation into the cell) [2] | maximum fluorescence wavelength [3, 5] | maximum fluorescence wavelength ([3]; pH 7.4, mixed solution of 20 μM 2-TRLG and 100 μM 2-NBDG (FIG. 4)) | fluorescence based on incorporation into the cell [4] |
| --- | --- | --- | --- | --- | --- | --- |
| O=[N+]([O-])c1ccc(NC2C(O)OC(CO)[C@H](O)C2O)c2nonc12 (stereo partly drawn) [2-NBDLG, 2-[N-(7-nitrobenz-2-oxa-1,3-diazol-4-yl)amino]-2-deoxy-L-glucose] | a difference in the result of the fluorescence detection for 2-NBDG and 2-NBDLG was not observed | could not be detected | almost no green fluorescence from the cell was observed |  |  |  |
| O=[N+]([O-])c1ccc(NC2C(O)OC(CO)[C@@H](O)C2O)c2nonc12 (stereo partly drawn) [2-NBDG, 2-[N-(7-nitrobenz-2-oxa-1,3-diazol-4-yl)amino]-2-deoxy-D-glucose] | a difference in the result of the fluorescence detection for 2-NBDG and 2-NBDLG was not observed | significant fluorescence due to the incorporation of 2-NBDG into the cells could be detected | green fluorescence from the cell was observed | around 540 nm | 540 nm | only green fluorescence derived from 2-NBDG was observed |
| CNc1ccccc1C(=O)N[C@H](C=O)[C@H](O)[C@@H](O)[C@@H](O)CO [2-NMALG, 2-[N-2-(N′-methylamino)benzoylamino]-2-deoxy-L-glucose] |  |  |  | around 450 nm |  |  |
